Reference: the supplement of paper PMC12205070

Experiments:
Assay in all cases: normalised number of viable cells after treatment (fraction of control); higher = more viable cells (less drug effect)
[1] = test system: P10 Initial (T-ALL xenograft cells from diagnosis)
Description: (§1)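 T-ALL PDX-derived cells (initial diagnosis or relapse samples of individual patients) co-cultured on hTERT-immortalized bone marrow MSCs in 384-well plates were treated with Cytarabine, Venetoclax, S-63845, A1331852 or FX1 (0.1 nM to 10,000 nM) for 72 h.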

[2] = test system: P8 Initial (T-ALL xenograft cells from diagnosis)
Description: as §1

[3] = test system: P1 Initial (T-ALL xenograft cells from diagnosis)
Description: as §1

[4] = test system: P2 Relapse (T-ALL xenograft cells from relapse)
Description: as §1

[5] = test system: P1 Relapse (T-ALL xenograft cells from relapse)
Description: as §1

[6] = test system: P8 Relapse (T-ALL xenograft cells from relapse)
Description: as §1

[7] = test system: P10 Relapse (T-ALL xenograft cells from relapse)
Description: as §1

[8] = test system: P6 Relapse (T-ALL xenograft cells from relapse)
Description: as §1

[9] = test system: P2 Initial (T-ALL xenograft cells from diagnosis)
Description: as §1

[10] = test system: P12 Initial (T-ALL xenograft cells from diagnosis)
Description: as §1

[11] = test system: P6 Initial (T-ALL xenograft cells from diagnosis)
Description: as §1

[12] = test system: P12 Relapse (T-ALL xenograft cells from relapse)
Description: as §1

[13] = test system: P3 Initial (T-ALL xenograft cells from diagnosis)
Description: as §1

[14] = test system: P3 Relapse (T-ALL xenograft cells from relapse)
Description: as §1

Nc1ccn([C@@H]2O[C@H](CO)[C@@H](O)[C@@H]2O)c(=O)n1 [Cytarabine]
Settings	normalised number of viable cells
[1], 0.998752 nM	1.45
[1], 9.98752 nM	1.4
[1], 99.8752 nM	0.472
[1], 998.752 nM	0.426
[1], 9987.52 nM	0.427
[2], 0.998752 nM	1.67
[2], 9.98752 nM	1.54
[2], 99.8752 nM	0.489
[2], 998.752 nM	0.4715
[2], 9987.52 nM	0.577
[3], 0.125 nM	0.988
[3], 1 nM	0.83
[3], 12.5 nM	0.396
[3], 100 nM	0.245
[3], 1250 nM	0.23
[3], 10000 nM	0.0865
[4], 0.998752 nM	0.981
[4], 9.98752 nM	0.99
[4], 99.8752 nM	0.973
[4], 998.752 nM	0.804
[4], 9987.52 nM	0.61
[5], 0.125 nM	0.84
[5], 1 nM	0.683
[5], 12.5 nM	0.426
[5], 100 nM	0.354
[5], 1250 nM	0.235
[5], 10000 nM	0.224
[6], 0.998752 nM	1.551
[6], 9.98752 nM	1.57
[6], 99.8752 nM	0.744
[6], 998.752 nM	0.821
[6], 9987.52 nM	0.599
[7], 0.998752 nM	1.08
[7], 9.98752 nM	1
[7], 99.8752 nM	0.737
[7], 998.752 nM	0.712
[7], 9987.52 nM	0.679
[8], 0.998752 nM	0.745
[8], 9.98752 nM	1.28
[8], 99.8752 nM	1.18
[8], 998.752 nM	0.902
[8], 9987.52 nM	0.852
[9], 0.998752 nM	1.83
[9], 9.98752 nM	1.97
[9], 99.8752 nM	0.894
[9], 998.752 nM	0.683
[9], 9987.52 nM	0.631
[10], 0.998752 nM	1.33
[10], 9.98752 nM	1.2
[10], 99.8752 nM	0.327
[10], 998.752 nM	0.313
[10], 9987.52 nM	0.593
[11], 0.998752 nM	0.95
[11], 9.98752 nM	0.6575
[11], 99.8752 nM	0.454
[11], 998.752 nM	0.248
[11], 9987.52 nM	0.239
[12], 0.998752 nM	4.13
[12], 9.98752 nM	5.01
[12], 99.8752 nM	1.49
[12], 998.752 nM	0.76
[12], 9987.52 nM	0.446
[13], 0.998752 nM	1.04
[13], 9.98752 nM	0.855
[13], 99.8752 nM	0.14
[13], 998.752 nM	0.0925
[13], 9987.52 nM	0.0805
[14], 0.998752 nM	1.14
[14], 9.98752 nM	0.684
[14], 99.8752 nM	0.464
[14], 998.752 nM	0.306
[14], 9987.52 nM	0.143

Cc1c(-c2ccc(N3CCc4cccc(C(=O)Nc5nc6ccccc6s5)c4C3)nc2C(=O)O)cnn1CC12CC3CC(CC(C3)C1)C2
normalised number of viable cells
Settings	0.125 nM	0.13 nM	1 nM	1.25 nM	12.5 nM	31.25 nM	100 nM	625 nM	1250 nM	10000 nM
[1]	–	0.894	–	0.32	–	0.163	–	0.0735	–	0.031
[2]	–	1.17	–	0.883	–	0.704	–	0.673	–	0.4885
[3]	1.07	–	0.741	–	0.429	–	0.38	–	0.172	0.0585
[4]	–	0.839	–	0.588	–	0.115	–	0.0705	–	0.0555
[5]	–	1.092	–	1	–	0.758	–	0.443	–	0.104
[6]	–	0.838	–	0.861	–	0.721	–	0.515	–	0.321
[7]	–	0.98	–	0.69	–	0.547	–	0.341	–	0.149
[8]	–	0.953	–	0.907	–	0.827	–	0.883	–	0.834
[9]	–	0.972	–	0.785	–	0.5015	–	0.407	–	0.2125
[10]	–	0.976	–	0.093	–	0.151	–	0.084	–	0.054
[11]	–	0.809	–	0.331	–	0.037	–	0.023	–	0.0205
[12]	–	2.48	–	0.433	–	0.132	–	0.075	–	0.0555
